Laboratory results: PubChem BioAssay (NCI)
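In this assay, cells in 96-well plates receive the compound at five concentrations for 48 hours. Endpoints are linearly interpolated between the surrounding concentrations. Abbreviation: GI50, concentration required for 50% inhibition of growth. TGI: total growth inhibition.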

How the values were obtained:
Test in all cases: DTP human tumour cell line panel, 48 h
A498 renal = test system: A498 renal
MDA-MB-231 breast = test system: MDA-MB-231 breast
NCI-H23 lung = test system: NCI-H23 lung
HCT-15 colon = test system: HCT-15 colon
SNB-75 CNS = test system: SNB-75 CNS
HCT-116 colon = test system: HCT-116 colon
A549 NSCLC = test system: A549 NSCLC
EKVX NSCLC = test system: EKVX NSCLC
OVCAR-3 ovarian = test system: OVCAR-3 ovarian
U251 CNS = test system: U251 CNS
MALME-3M melanoma = test system: MALME-3M melanoma
SK-MEL-28 melanoma = test system: SK-MEL-28 melanoma
HT29 colon = test system: HT29 colon
MOLT-4 leukemia = test system: MOLT-4 leukemia
COLO 205 colon = test system: COLO 205 colon
UACC-62 melanoma = test system: UACC-62 melanoma
NCI/ADR-RES ovarian = test system: NCI/ADR-RES ovarian
SK-MEL-2 melanoma = test system: SK-MEL-2 melanoma
RPMI-8226 leukemia = test system: RPMI-8226 leukemia
BT-549 breast = test system: BT-549 breast
SW-620 colon = test system: SW-620 colon
TK-10 renal = test system: TK-10 renal
NCI-H460 lung = test system: NCI-H460 lung
HOP-92 NSCLC = test system: HOP-92 NSCLC
NCI-H226 lung = test system: NCI-H226 lung
SF-295 CNS = test system: SF-295 CNS
PC-3 prostate = test system: PC-3 prostate
KM12 colon = test system: KM12 colon

## C=C1C(=O)O[C@H]2[C@H]1CC/C(CNC(=O)c1cccc3ccccc13)=C\CC[C@@]1(C)O[C@@H]21
A498 renal
  GI50: 5.93 µM
  TGI: 19.2 µM
MDA-MB-231 breast
  GI50: 1.59 µM
  TGI: 4 µM
NCI-H23 lung
  GI50: 3.67 µM
  TGI: 19.1 µM
HCT-15 colon
  GI50: 1.31 µM
  TGI: 3.14 µM
SNB-75 CNS
  GI50: 11.9 µM
  TGI: 27.1 µM
HCT-116 colon
  GI50: 1.03 µM
  TGI: 2.32 µM
A549 NSCLC
  GI50: 14.1 µM
  TGI: 35.3 µM
EKVX NSCLC
  GI50: 2.2 µM
  TGI: 8.79 µM
OVCAR-3 ovarian
  GI50: 1.31 µM
  TGI: 2.77 µM
U251 CNS
  GI50: 5.2 µM
  TGI: 18.2 µM
MALME-3M melanoma
  GI50: 1.41 µM
  TGI: 3.23 µM
SK-MEL-28 melanoma
  GI50: 2.78 µM
  TGI: 10.7 µM
HT29 colon
  GI50: 1.84 µM
  TGI: 4.75 µM
MOLT-4 leukemia
  GI50: 1.7 µM
  TGI: 5.62 µM
COLO 205 colon
  GI50: 1.75 µM
  TGI: 3.53 µM
UACC-62 melanoma
  GI50: 1.64 µM
  TGI: 3.9 µM
NCI/ADR-RES ovarian
  GI50: 4.52 µM
  TGI: 46.9 µM
SK-MEL-2 melanoma
  GI50: 6.51 µM
  TGI: 24.2 µM
RPMI-8226 leukemia
  GI50: 2.02 µM
  TGI: 6.4 µM
BT-549 breast
  GI50: 1.58 µM
  TGI: 3.87 µM
SW-620 colon
  GI50: 1.12 µM
  TGI: 3.04 µM
TK-10 renal
  GI50: 1.98 µM
  TGI: 4.46 µM
NCI-H460 lung
  GI50: 7.23 µM
  TGI: 25.2 µM
HOP-92 NSCLC
  GI50: 1.83 µM
  TGI: 4.44 µM
NCI-H226 lung
  GI50: 29.1 µM
  TGI: 77.6 µM
SF-295 CNS
  GI50: 6.15 µM
  TGI: 21.6 µM
PC-3 prostate
  GI50: 1.79 µM
  TGI: 4 µM
KM12 colon
  GI50: 5.25 µM
